From a melting point compilation (Tetko et al.; mined from patent text by program, amines drawn as free bases though some values may be those of a salt)

| SMILES | melting point |
| --- | --- |
| CCOC(=O)c1cn(Cc2ccccc2)nc1OCc1ccc(OCc2nc(-c3ccco3)oc2C)c(CC)c1 | 125 to 126 °C |
| O=[N+]([O-])c1cccc(-c2ccccc2O)c1 | 99.5 to 100 °C |
| Cc1cc(OCc2ccccc2)cc(C)c1NC(=O)CN1CCN2C(C1)C(=O)NC2(C)C (configuration not stated) | 224 °C |
| Oc1ccc(O[C@@H]2CCNC[C@H]2O)cc1 (relative stereo) | 176 to 178 °C |
| Cc1cnnc2c1C(=O)CC(c1cc(Cl)sc1Cl)C2 (configuration not stated) | 137 to 138 °C |
| CC=C(Oc1nc(OC)cc(OC)n1)C(=O)OC | 71 °C |
| O=C(O)/C=C/c1oc(-c2ccccc2)nc1-c1ccc(Cl)cc1 | 255 to 257 °C |
| CCC1c2cccn2-c2ccc(Br)cc2N1S(=O)(=O)c1ccc(O)cc1 (configuration not stated) | 206 to 208 °C |
| COC1=C(OC)C(=O)C(N=[N+]=[N-])=C(C)C1=O | 48 to 50 °C |
| CCOC(=O)CCCCCCCn1c(C)nc(-c2ccccc2)c1-c1ccccc1 | 135 to 136 °C |
| O=C(Nc1ccccc1Cl)N1CCc2cc(S(=O)(=O)N3CCN(c4cccc(Cl)c4)CC3)ccc21 | 205 to 206 °C |
| CC1(C)CC(O)C(C)(C)c2cc(C=O)ccc21 (configuration not stated) | 76 to 78 °C |
| CC1(c2nn(-c3ccc([N+](=O)[O-])cc3Cl)c(=O)o2)CC1 | 95 to 97 °C |
| CC(Oc1ccc(Oc2cnc3cc(Cl)ccc3n2)cc1)C(=O)Nc1ccc(OC(F)(F)F)cc1 (configuration not stated) | 156 to 158 °C |
| CCn1c2ccccc2c2cc(NC(=O)c3c(C)cccc3C)ccc21 | 192 to 193 °C |
| O=C(ONC1CCCCC1)c1n[nH]c2c(=O)[nH]c3cc(Cl)ccc3c(=O)c12 | 220 °C |
| CC1(C)CNc2cc(Br)ccc21 | 100 to 102 °C |
| COC(=O)C1=C(C)NC(C)=C(P2(=O)OCCCO2)C1c1ccccc1[N+](=O)[O-] (configuration not stated) | 249 to 251 °C |
| O=[N+]([O-])N=C1N(Cc2ccc(Cl)nc2)CCN1[N+](=O)[O-] | 158 °C |
| COc1nc2cc([N+](=O)[O-])c(C)c(C(=O)Nc3ccc(C)cc3)c2nc1OC | 214 to 215 °C |
| COc1ccc(CNC(=O)c2cc([N+](=O)[O-])ccc2N[C@@H](CO)CCSC)cc1OC | 150 to 152 °C |
| Nc1c(C(F)(F)F)cnn1-c1c(Cl)cc(C(F)(F)F)cc1Cl | 106 °C |
| CC(O)c1cccc(-c2ccc3nc(-c4ccc(Cl)cc4)cn3c2)c1F (configuration not stated) | 193 to 195 °C |
| Cc1cc2c(-c3cccc(CCC(=O)O)c3)c(CC(=O)Nc3ccc(F)cc3C(F)(F)F)c(=O)oc2cc1Cl | 212 to 214 °C |

| SMILES | melting point |
| --- | --- |
| COc1ccccc1-c1ccc2cnc(Nc3ccc4c(c3)NC(=O)CC4)nn12 | 310 to 313 °C |
| COc1ccc2c(c1)Sc1c(cc(OC)c(OC(C)=O)c1Br)N2 | 201 to 203 °C |
| CC(C)(C)C1OC1C(O)c1ccccc1 (configuration not stated) | 57 to 59 °C |
| CC(C)(C)OC(=O)C(Cc1c[nH]cn1)N(C(=O)OC(C)(C)C)C(=O)OC(C)(C)C (configuration not stated) | 98 °C |
| COCCCSc1c2c(=O)n(C)c(=O)n(CC(C)C)c2cn1Cc1cccc2ccccc12 | 92 to 94 °C |
| CC(C)n1nc(-c2sc(C(=O)NC3CC3)nc2-c2ccccc2)ccc1=O | 127 to 128 °C |
| Cc1cc2nc(O)nc(O)c2s1 | > 300 °C |
| CC12C=CC(=O)C=C1C(SC#N)C(O)C1C2CCC2(C)C(=O)CCC12 (configuration not stated) | 206 to 208 °C |
| O=Cc1sc2ccccc2c1-c1ccccc1 | 86 to 89 °C |
| N#Cc1cnc(NS(=O)(=O)c2cccc(Cl)c2Cl)c(OCc2cccnc2)n1 | 222 to 224 °C |
| CC(c1ccccc1)C(C(=O)c1ccc(Cl)cc1)n1cncn1 (configuration not stated) | 163 to 165 °C |
| O=C(CSc1ncc(-c2ccccc2)cn1)NC1CCN(Cc2ccc(Cl)c(Cl)c2)CC1 | 157 °C |
| Cc1cc(C)c(NC(=O)CC23CC4CC(CC(C4)C2)C3)cc1C | 158 °C |
| CCC(=O)N1C(=O)C2C=CC1C2 (configuration not stated) | 54 to 56 °C |
| O=C(NCCCN1CCN(c2ccc(F)cc2OCC(F)(F)F)CC1)c1csc2c(=O)cc(-c3ccccc3)oc12 | 189 to 191 °C |
| N#CCCNC(=O)c1cccc(-c2cccc3nn(Cc4cc(F)cc(Cl)c4)cc23)c1 | 207 to 208 °C |
| O=C(Nc1ccccc1F)C1C(=O)Sc2ccccc21 (configuration not stated) | 155 to 156 °C |
| CCCCc1ncc(CC(NC(=O)CCc2ccccc2)C(=O)O)n1Cc1ccccc1Cl (configuration not stated) | 194 to 196 °C |
| CC#Cc1ccc(NC(=O)c2ccccc2NCc2ccncc2)cc1C(F)(F)F | 165 to 166 °C |
| COc1ccc(N2CCN(Cc3cc4ccccc4[nH]c3=O)CC2)cc1 | 263 to 266 °C |
| Cc1cc2cc(Cl)ccc2n1Cc1ccccc1 | 75 to 76 °C |
| CCOc1ccc(C(OC2CCN(CCCCCC(=O)O)CC2)c2ccccc2)cc1 (configuration not stated) | 110 to 112 °C |
| COC(=O)c1nc(-c2ccc(Cl)c(N(C)C)c2F)nc(N)c1C1CC1 | 156 to 158 °C |
| O=C(Nc1ccc2ccc(Oc3ccccc3)nc2n1)C1=CSCCS1 | 240 °C |

Other lines, results leading:

| melting point | SMILES |
| --- | --- |
| 81.5 to 82.5 °C | COc1ccc2oc(C(=O)OCC(C)(C)C(=O)C(C)(C)C)cc2c1 |
| 283 to 286 °C | O=C(O)COc1ccc2c(=O)c3cccc(Cl)c3oc2c1Cl |
| 146 to 148 °C | CN(CCOc1ccc(CC(F)C(=O)O)cc1)c1nc2ccccc2o1 (configuration not stated) |
| 102 to 104 °C | O=C1NC(=O)C(Cc2ccc(OCCC3OCCO3)cc2)S1 (configuration not stated) |
| 43 to 45 °C | CCOC(=O)c1conc1-c1ccc(Cl)cc1 |
| > 260 °C | COc1cccc2c3c([nH]c12)C(=O)N=NC3=O |
| 154 to 155 °C | COC(=O)C(CCCBr)Oc1cc2c(cc1[N+](=O)[O-])CCC2 (configuration not stated) |
| 164 to 166 °C | Cc1ccc(-c2nc3c(O)cccc3s2)cc1 |
| 141 °C | CC(C)c1nc(N)oc1-c1ccc(F)c2ccccc12 |
| 248 to 249 °C | COc1ccc2c(n1)c(C=C[N+](=O)[O-])c1n2CCCO1 |
| 104 °C | CCC(C)(C)c1ccc(OCC2CN=C(N)O2)cc1 (configuration not stated) |
| 136 to 137 °C | Cc1cc(C(=O)c2ccccc2C(F)(F)F)c(N)s1 |
| 277 to 279 °C | O=C(O)COc1ccc2c(=O)c3c(oc2c1)C(=Cc1ccccc1)CC3 |
| 102 to 103 °C | CCn1ncc2nc(C(=O)OCC#N)c(-c3ccccc3)nc21 |
| 54 to 56 °C | CC(C)OCCOc1c(-c2ccc(S(N)(=O)=O)cc2)cnn(-c2ccc(F)c(F)c2)c1=O |
| 142 to 144 °C | CC(O)c1ccc(OCCCN2CCC(c3noc4cc(F)ccc34)CC2)c(O)c1 (configuration not stated) |
| 119 to 120 °C | Cc1oc(-c2ccccc2)nc1C(=O)COc1ccc(CCC2OCCO2)cc1 |
| 78 °C | C(=C\c1cccs1)/c1ncon1 |
| 240 to 247 °C | O=c1cc(N2CCOCC2)oc2c(O)cccc12 |
| 94.5 °C | COc1ccccc(N(C)S(=O)(=O)c2ccc(C)cc2)c1=O |
| 95 to 96 °C | CC(=O)c1ccc(CCCOc2c(C)cc(N3CN=C(C(F)F)O3)cc2C)nn1 |
| 105 to 107 °C | Nc1noc2cccc(OCCBr)c12 |
| 80 °C | O=C1c2cc(O)ccc2OCN1CCO[N+](=O)[O-] |
| 160 to 161 °C | COc1c(NCc2cccc(C)c2)cc2oc(=O)[nH]c2c1F |
